Experimental data taken from patent US20220047476A1, “A METHOD FOR FIGHTING FEMALE BODY ODORS” (SYMRISE AG, priority 2018, published 2022).

Tests used:
[1] = Malodor reduction via sensory testing, sweat malodor model; design: species or system human; settings: trained female panel N=9, 1=no odor to 10=strongest imaginable, averaged, malodor only 5.8, 0.0% control 5.1
Method: (§1) A trained sensory panel consisting of females, (N=9) ages 40-55 years old evaluated the samples. Panelists are regularly trained on fragrance and malodor intensity scoring and must pass routine screening and calibration tests to remain on the panel. Panelist onboarding and orientation was performed following ASTM Committee E-18 on Sensory Evaluation of Materials and Products, Guidelines for the Selection and Training of Sensory Panel Members (ASTM STP758, American Society for Testing and Materials, 1981, pp. 1-35). Panelists were selected based on health, interest, availability, descriptive and scaling ability, olfactory acuity, attitude and personality. Panelists are introduced to intensity measurement using selected intensity standards and exercised in the use of the scaling system to quantify intensity.
(§2) Training and evaluation was performed for six weeks following orientation. Each panelist completed practice sessions where they were exposed to different types of odors (malodor, fragrance, etc.) and different substrates (fabric, clothing, blotter cards, jars, etc.). Panelist inclusion was dependent upon panel administrator discussions, specific response evaluation, and comparison to standards.
(§3) In this example, feminine wash was formulated with various concentrations of 5-methyl-2-(1-methylethyl)-cyclohexanol acetate, as shown in Table 1 below. A sample without of 5-methyl-2-(1-methylethyl)-cyclohexanol acetate was used as a control.
(§4) The sweat malodor model is comprised of malodors including 3-methyl-2-hexenoic acid and 3-mercapto-3-methyl-1-hexanol. The feminine odor model contains acetic acid, 2-methyl-butyric acid, valeric acid and trimethyl amine. The trained panelists subjectively evaluated the samples using a 10-point scoring scale (1=no odor to 10=strongest imaginable). Panelists are first shown the malodor only sample as a reference, and asked to rate its odor intensity. Panelists are then shown the test samples in a blinded fashion labelled with a 3 digit code. There is a 45 second wait time between samples to prevent olfactive fatigue. […]

[2] = Malodor reduction via sensory testing, feminine (vaginal) odor model; design: species or system human; settings: trained female panel N=9, 1=no odor to 10=strongest imaginable, averaged, malodor only 6.0, 0.0% control 5.3
Method: as §1, §2, §3, §4

[3] = Vapor pressure reduction: malodors in closed flask headspace, cold finger collection, GC FID; type: physicochemical; settings: with 1 g active in separate dish, sealed 500 mL flask, four hours, cold finger 10° C.
Method: Two 500 mL Erlenmeyer flasks were prepared with a blend of five malodor substances (200 mg total; indole, methyl phenyl acetate, skatol, p-cresyl isovalerate, isoamyl phenylacetate) in a small dish. To one flask, in a separate small dish, was added 1 g of 5-methyl-2-(1-methylethyl)-cyclohexanol acetate. Each flask was sealed with a cold finger through which water at 10° C. was passed. After four hours, the flasks were opened and the cold fingers were washed with diethyl ether. This eluent is representative of the headspace above the sample, and quantifies the malodor concentration in the air. The collected diethyl ether fractions were made to a standard volume and analyzed by gas chromatography (GC FID). This experiment is meant to analyze the interaction of malodor with 5-methyl-2-(1-methylethyl)-cyclohexanol acetate in a way that mimics a consumer's experience.

In the case of `CC(=O)O[C@@H]1C[C@H](C)CC[C@H]1C(C)C` [5-methyl-2-(1-methylethyl)-cyclohexanol acetate], the “Sweat Malodor intensity rating from 1 to 10” value (from here on “Sweat Malodor intensity rating”) ([1]; 0.1% active in feminine wash) is reported as 4.8, the “Sweat Malodor intensity rating” value ([1]; 0.2% active in feminine wash) is reported as 3.0 and the “Sweat Malodor intensity rating” value ([1]; 0.5% active in feminine wash) is reported as 2.2. The “Feminine (Vaginal) Malodor intensity rating from 1 to 10” value (“Feminine” for short) ([2]; 0.1% active in feminine wash) was 4.5, the “Feminine” value ([2]; 0.2% active in feminine wash) was 3.3 and the “Feminine” value ([2]; 0.5% active in feminine wash) was 2.6. For the same molecule, the “Relative Amount of Malodor: skatol” value ([3]; without active 0.06) was 0.0003, the “Relative Amount of Malodor: p-cresyl isovalerate” value ([3]; without active 0.10) was 0.0002 and the “Relative Amount of Malodor: isoamyl phenylacetate” value ([3]; without active 1.20) was 0.0000. For the same molecule, the “Relative Amount of Malodor: indole” value ([3]; without active 1.30) was 0.0300 and the “Relative Amount of Malodor: methyl phenyl acetate” value ([3]; without active 1.50) was 0.0000.
